Where two headings read alike, the source gives them in different places.
Key:
beclin1 = beclin1 (Homo sapiens, UniProt Q14457); conditions: targets beclin1; cited from earlier work
[1] = test system: experimental autoimmune encephalomyelitis (EAE); conditions: in vivo; cited from earlier work
[2] = in water
[3] = 20 °C
[4] = for Labeled amount / Related substances Impurity A / Related substances Impurity B / Related substances Impurity C / Related substances Impurity D / Related substances Impurity E / Related substances Impurity F / Related substances RRT0.73 / Related substances RRT1.10 / Related substances RRT2.18 / Related substances Total impurities: mixed 1:5 with CMC-Na
[5] = for plasma drug concentrations above the LLOQ: topical gel, dose levels 1-5, LLOQ 0.02 ng/mL
[6] = test system: human liver cancer HepG2 cells; conditions: cited from earlier work
[7] = High humidity for 10 days (RH 90%±5%)
[8] = High temperature for 10 days (60°C±2°C)

beclin1, sequence (Q14457 whole entry, species assumed): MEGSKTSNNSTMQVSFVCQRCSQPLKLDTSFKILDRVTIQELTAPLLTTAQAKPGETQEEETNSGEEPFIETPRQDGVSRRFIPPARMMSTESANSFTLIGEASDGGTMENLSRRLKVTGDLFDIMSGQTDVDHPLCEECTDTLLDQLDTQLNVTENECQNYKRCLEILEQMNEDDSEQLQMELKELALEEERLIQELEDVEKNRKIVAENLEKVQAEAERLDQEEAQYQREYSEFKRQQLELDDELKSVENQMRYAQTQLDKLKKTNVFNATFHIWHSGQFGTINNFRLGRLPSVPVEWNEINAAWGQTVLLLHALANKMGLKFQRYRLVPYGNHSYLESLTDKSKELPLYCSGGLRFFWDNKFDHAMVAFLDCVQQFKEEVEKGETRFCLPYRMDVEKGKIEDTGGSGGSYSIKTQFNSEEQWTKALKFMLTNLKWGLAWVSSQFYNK

In the case of `CO[C@H]1[C@H](O)[C@H](O[C@H]2CC[C@@]3(C)[C@H](CC[C@@H]4[C@@H]3CC[C@]3(C)[C@@H](C5=CC(=O)OC5)CC[C@]43O)C2)O[C@@H](C)[C@@H]1O` [neriifolin], the “formation of LC3-associated phagosomes” value (beclin1) is given as “inhibit the formation of LC3-associated phagosomes” and the “progression of experimental autoimmune encephalomyelitis (EAE)” value [1] is given as “ameliorate the progression”.

For `CO[C@H]1[C@H](O)[C@H](O[C@H]2CC[C@@]3(C)[C@H](CC[C@@H]4[C@@H]3CC[C@]3(C)[C@@H](C5=CC(=O)OC5)CC[C@]43O)C2)O[C@@H](C)[C@@H]1O` [17β-neriifolin], the water solubility [2] was “about 70 µg/mL”, the Dissolution behavior ([3]; Ethanol concentration 50 %, sample concentration 24 mg/g) was “Dissolved” and the Dissolution behavior ([3]; Ethanol concentration 66 %, sample concentration 32 mg/g) was “Dissolved”. The Dissolution behavior ([3]; Ethanol concentration 75 %, sample concentration 40 mg/g) was “Dissolved”, the Dissolution behavior ([3]; Ethanol concentration 100 %, sample concentration 50 mg/g) was “Dissolved” and the “stability of the combination” value ([4]; combination with sodium carboxymethyl cellulose compared with combination with Carbomer) was “significantly superior”. The “impact on the related substances and drug content” value ([4]; combined 1:5 with sodium carboxymethyl cellulose, high temperature, high humidity, illumination, 10 days) was “no impact”, the Labeled amount ([4]; 0 days) was 99.56% and the “Related substances Impurity A” value ([4]; 0 days) was 0.17%. For the same molecule, the “Related substances Impurity B” value ([4]; 0 days) was 0.36%, the “Related substances Impurity C” value ([4]; 0 days) was 0.25% and the “Related substances Impurity D” value ([4]; 0 days) was 0.13%. The “Related substances Impurity E” value ([4]; 0 days) was 0.15%, the “Related substances Impurity F” value ([4]; 0 days) was 0.14% and the “Related substances RRT0.73” value ([4]; 0 days) was 0.05%. For the same molecule, the “Related substances RRT1.10” value ([4]; 0 days) was 0.04%, the “Related substances RRT2.18” value ([4]; 0 days) was 0.03% and the “Related substances Total impurities” value ([4]; 0 days) was 1.32%. The Labeled amount [4, 7] was 99.42%, the “Related substances Impurity A” value [4, 7] was 0.17% and the “Related substances Impurity B” value [4, 7] was 0.36%. For the same molecule, the “Related substances Impurity C” value [4, 7] was 0.25%, the “Related substances Impurity D” value [4, 7] was 0.13% and the “Related substances Impurity E” value [4, 7] was 0.15%. The “Related substances Impurity F” value [4, 7] was 0.14%, the “Related substances RRT0.73” value [4, 7] was 0.05% and the “Related substances RRT1.10” value [4, 7] was 0.04%. For the same molecule, the “Related substances RRT2.18” value [4, 7] was 0.03%, the “Related substances Total impurities” value [4, 7] was 1.32% and the Labeled amount [4, 8] was 100.95%. For the same molecule, the “Related substances Impurity A” value [4, 8] was 0.17%, the “Related substances Impurity B” value [4, 8] was 0.36% and the “Related substances Impurity C” value [4, 8] was 0.25%. The “Related substances Impurity D” value [4, 8] was 0.13%, the “Related substances Impurity E” value [4, 8] was 0.15% and the “Related substances Impurity F” value [4, 8] was 0.14%. The “Related substances RRT0.73” value [4, 8] was 0.05%, the “Related substances RRT1.10” value [4, 8] was 0.04% and the “Related substances RRT2.18” value [4, 8] was 0.03%. For the same molecule, the “Related substances Total impurities” value [4, 8] was 1.32%, the Labeled amount ([4]; Strong light for 10 days) was 99.96% and the “Related substances Impurity A” value ([4]; Strong light for 10 days) was 0.17%. The “Related substances Impurity B” value ([4]; Strong light for 10 days) was 0.36%, the “Related substances Impurity C” value ([4]; Strong light for 10 days) was 0.25% and the “Related substances Impurity D” value ([4]; Strong light for 10 days) was 0.13%. For the same molecule, the “Related substances Impurity E” value ([4]; Strong light for 10 days) was 0.15%, the “Related substances Impurity F” value ([4]; Strong light for 10 days) was 0.14% and the “Related substances RRT0.73” value ([4]; Strong light for 10 days) was 0.05%. For the same molecule, the “Related substances RRT1.10” value ([4]; Strong light for 10 days) was 0.04%, the “Related substances RRT2.18” value ([4]; Strong light for 10 days) was 0.03% and the “Related substances Total impurities” value ([4]; Strong light for 10 days) was 1.32%. For the same molecule, the “systemic exposure, dose dependence” value ([5]; 0.008-0.06 mg/cm^2 dose range) was “No dose-dependent increase”, the “plasma drug concentrations above the LLOQ” value ([5]; four Australian subjects) was 0.021 to 0.101 ng/mL and the “plasma drug concentrations above the LLOQ” value ([5]; seven Chinese subjects) was 0.022 to 0.106 ng/mL. For the same molecule, the “cell cycle arrest and apoptosis” value [6] was “induce cell cycle arrest and apoptosis”.
